# Source: patent US9556202B2, “Sulfonamide derivatives and methods of use thereof for improving the pharmacokinetics of a drug” (MERCK SHARP & DOHME CORP., priority 2012, dated 2017)
# Biological target: T1, CYP3A4 (Homo sapiens, UniProt P08684)
# T1 construct: 0.01 mg/mL protein human liver microsomes (BD Gentest); tissue BD Gentest; host or cells: human liver microsomes
# Assay: IC50 vs CYP3A by inhibition of lopinavir metabolism in human liver microsomes
# Format: biochemical
# Conditions: human liver microsomes 0.01 mg/mL, 1.5 μM lopinavir, 8 min 37° C.; test conc. e.g. 0.098-100 nM; unit inferred; read-out: 3A4(LPV)
# Method: Determination of IC50 Vs CYP3A by Measurement of Inhibition of Lopinavir Metabolism
# This assay was performed in a standard 96-well plate design. IC50 values were calculated from the percent inhibition observed for each test compound at 6 concentrations (for example, 0.098, 0.391, 1.56, 6.25, 25 and 100 nM). The incubation substrate mix contains 1.5 μM lopinavir, 0.01 mg/mL protein human liver microsomes (BD Gentest), 1 mM NAPDH, 3.3 mM MgCl2 and 100 mM potassium phosphate buffer (pH 7.4). The production of the sum of three hydroxylated metabolites (M2: 6-hydroxy lopinavir, M3: 4-hydroxy lopinavir, M4: 4-hydroxy lopinavir (epimer of M3), Kumar et al., 1999) was determined after incubation for 8 min at 37° C. Quantitation of the metabolite peak area ratio against an internal standard (tolbutamide) was determined by LC/MS/MS analysis following acetonitrile treatment of the incubations.
# Samples were analyzed in the MRM mode with a SCIEX API-4000 mass spectrometer (Applied Biosystems, Foster City, Calif.), with a Shimadzu LC-20 AD pump (Shimadzu corporation, Kyoto, JP) and a CTC PAL autosampler (Agilent Technologies, Switzerland). A Phenomenex, Luna, 5 μm, 100 A, 2.00×30 mm HPLC column was used for the separation. The mobile phases were: (A) 0.1% formic acid in water and (B) 0.1% formic acid in acetonitrile. The binary gradient was as follows.
# The peak area ratio of the analyte to the internal standard was used to quantify the metabolite. The values of peak area ratios in the presence of test compound were compared to those of maximum or minimum controls and were expressed as % inhibition by interpolating between the maximum and minimum peak area ratios. Incubations with no inhibitor were defined as the maxima and with 5 μM ketoconazole were defined as the minima.
# The following equation was used to calculate the % inhibition: [1−[(X−Low control)/(High control−Low control)]]*100
# For the IC50 calculation, SigmaPlot was used to plot the mean % inhibition versus the test compound concentrations and for non-linear regression analysis of the data. Depending on the range of data points defining the inhibition curve, the data may have been fit to the 4-parameter logistic equation.
# T1 sequence (P08684 2-503): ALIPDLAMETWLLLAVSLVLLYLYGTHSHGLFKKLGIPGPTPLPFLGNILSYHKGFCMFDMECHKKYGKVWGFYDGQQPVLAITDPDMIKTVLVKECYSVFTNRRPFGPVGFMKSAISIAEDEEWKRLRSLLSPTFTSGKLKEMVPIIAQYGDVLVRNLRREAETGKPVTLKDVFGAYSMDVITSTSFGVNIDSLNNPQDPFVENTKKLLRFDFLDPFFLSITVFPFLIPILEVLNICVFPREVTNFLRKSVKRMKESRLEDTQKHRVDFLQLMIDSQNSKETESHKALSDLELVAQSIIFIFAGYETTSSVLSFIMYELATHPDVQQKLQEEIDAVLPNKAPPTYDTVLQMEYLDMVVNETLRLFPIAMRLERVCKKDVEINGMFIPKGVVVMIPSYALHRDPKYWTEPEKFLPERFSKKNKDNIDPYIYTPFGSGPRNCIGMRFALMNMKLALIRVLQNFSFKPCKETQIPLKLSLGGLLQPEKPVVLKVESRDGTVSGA
row,IC50,Compound
1,8 nM,C[C@H](c1ccc(F)cc1)n1cncc1C1C(=O)OCC2CN(S(=O)(=O)c3cnc(Nc4ccc(C(F)(F)F)cn4)s3)CCN21 (stereo partly shown) [Compound 39]
2,6 nM,"C[C@H](c1ccc(F)cc1)n1cncc1C1CC12CCN(S(=O)(=O)c1cnc(N3CCN(C)CC3)s1)CC2 (single isomer, unassigned) [Compound 43a]"
3,1.5 nM,C[C@H](c1ccc(F)cc1)n1cncc1CN1CCN(S(=O)(=O)c2cnc(N3CCN4C(=O)OC[C@H]4C3)s2)CC1 [Compound 26]
4,1.2 nM,CN1CCN(c2ncc(S(=O)(=O)N3CCN(Cc4cncn4CCOc4ccc(Cl)cc4)CC3)s2)CC1 [Compound 32]
5,4.1 nM,CC(c1cncn1[C@H](C)c1ccc(F)cc1)N1CCN(S(=O)(=O)c2cnc(N3CCN4C[C@H](O)C[C@H]4C3)s2)CC1 (stereo partly shown) [Compound 37]
6,2.9 nM,C[C@H](c1ccc(F)cc1)n1cncc1CN1CCN(S(=O)(=O)c2cncc(N3CCNCC3)c2)CC1 [Compound 29]
7,0.8 nM,C[C@H](c1ccc(F)cc1)n1cncc1C1COCC2CN(S(=O)(=O)c3cnc(Nc4ccccn4)s3)CCN21 (stereo partly shown) [Compound 40]
8,13 nM,C[C@H](c1ccc(F)cc1)n1cncc1CC1(CO)CCN(S(=O)(=O)c2cnc(N3CCN(C)CC3)s2)CC1 [Compound 47]
9,1.1 nM,C[C@H](c1ccc(F)cc1)n1cncc1CC1CCN(S(=O)(=O)c2cnc(N3CCN(C)CC3)s2)CC1 [Compound 44]
10,4.4 nM,C[C@H](c1ccc(F)cc1)n1cncc1CN1CCN(S(=O)(=O)c2ccc(N3CCNCC3)cn2)CC1 [Compound 28]
11,9.4 nM,C[C@H](c1ccc(F)cc1)n1cncc1CC1(C#N)CCN(S(=O)(=O)c2cnc(N3CCN(C)CC3)s2)CC1 [Compound 48]
12,2.1 nM,C[C@H](c1ccc(F)cc1)n1cncc1C1CN(C)CC2CN(S(=O)(=O)c3cnc(Nc4ccccn4)s3)CCN21 (stereo partly shown) [Compound 41]
13,2.3 nM,CN1CCN(c2ncc(S(=O)(=O)N3CCN(Cc4cncn4CCOc4ccc(F)cn4)CC3)s2)CC1 [Compound 33]
14,4.4 nM,Cc1ccc(C2(n3cncc3CN3CCN(S(=O)(=O)c4cnc(N5CCN(C)CC5)s4)CC3)CC2)nc1 [Compound 31]
15,32 nM,C[C@H](c1ccc(F)cc1)n1cnnc1CN1CCN(S(=O)(=O)c2cnc(N3CCN4C[C@H](O)C[C@H]4C3)s2)CC1 [Compound 42]
16,3.6 nM,C[C@H](c1ccc(F)cc1)n1cncc1CN1CCN(S(=O)(=O)c2cnc(N3CCNCC3)cn2)CC1 [Compound 30]
17,2 nM,"C[C@H](c1ccc(F)cc1)n1cncc1C1CC12CCN(S(=O)(=O)c1cnc(N3CCN(C)CC3)s1)CC2 (single isomer, unassigned) [Compound 43b]"
18,1.9 nM,C[C@H](c1ccc(F)cc1)n1cncc1CN1CCN(S(=O)(=O)c2cnc(N3CCC(N)(CO)CC3)s2)CC1 [Compound 25]
19,2.6 nM,C[C@H](c1ccc(F)cc1)n1cncc1CN1CCN(S(=O)(=O)c2cnc(N3CCN4CCC(O)[C@H]4C3)s2)CC1 (stereo partly shown) [Compound 27]

# The next lines start with the compound.
row,Compound,IC50
1,C[C@H](c1ccc(F)cc1)n1cncc1CN1CCN(S(=O)(=O)c2cnc(N3CCN(C)CC3)s2)CC1 [Compound 2],1 nM
2,C[C@H](c1ccc(F)cc1)n1cncc1CN1CCN(S(=O)(=O)c2cnc(N3CCN4C[C@H](O)C[C@H]4C3)s2)CC1 [Compound 5],3.8 nM
3,C[C@H](c1ccc(F)cc1)n1cncc1CN1CCN(S(=O)(=O)c2cnc(N3CCC(S(C)(=O)=O)C3)s2)CC1 (stereo partly shown) [Compound 7],1.7 nM
4,C[C@H](c1ccc(F)cc1)n1cncc1CN1CCN(S(=O)(=O)c2cnc(N3CC[C@@H]4OCCN[C@H]4C3)s2)CC1 [Compound 13],1.4 nM
5,C[C@H](c1ccc(F)cc1)n1cncc1CN1CCN(S(=O)(=O)c2cnc(N3CCN4C[C@H](O)C[C@H]4C3=O)s2)CC1 [Compound 18],1.1 nM
6,C[C@H](c1ccc(F)cc1)n1cncc1CN1CCN(S(=O)(=O)c2cnc(N3CCC(S(C)(=O)=O)C3)s2)CC1 (stereo partly shown) [Compound 8],1.8 nM
7,CC1CN(c2ncc(S(=O)(=O)N3CCN(Cc4cncn4[C@H](C)c4ccc(F)cc4)CC3)s2)C[C@@H]2C[C@@H](O)CN12 (stereo partly shown) [Compound 23],1.6 nM
8,C[C@H](c1ccc(F)cc1)n1cncc1CN1CCN(S(=O)(=O)c2cnc(N3CCC4(CC3)CNC(=O)N4)s2)CC1 [Compound 3],2.7 nM
9,C[C@H](c1ccc(F)cc1)n1cncc1CN1CCN(S(=O)(=O)c2cnc(N3CC(=O)N4C[C@H](O)C[C@H]4C3)s2)CC1 [Compound 16],5.2 nM
10,C[C@H](c1ccc(F)cc1)n1cncc1CN1CCN(S(=O)(=O)c2cnc(N3C[C@@H]4C[C@@H](O)CN4C[C@@H]3C)s2)CC1 [Compound 21],1.9 nM
11,C[C@H](c1ccc(F)cc1)n1cncc1CN1CCN(S(=O)(=O)c2cnc(N3CC[C@@H](N4CCOCC4)[C@H](F)C3)s2)CC1 [Compound 20],4.1 nM
12,C[C@H](c1ccc(F)cc1)n1cncc1CN1CCN(S(=O)(=O)c2cnc(N3CC[C@@H](N)[C@H](F)C3)s2)CC1 [Compound 12],1 nM
13,C[C@H](c1ccc(F)cc1)n1cncc1CN1CCN(S(=O)(=O)c2cnc(N3CCN(C4CCN(C)CC4)CC3)s2)CC1 [Compound 9],2.8 nM
14,C[C@H](c1ccc(C#N)cc1)n1cncc1CN1CCN(S(=O)(=O)c2cnc(Nc3ccc(C(F)(F)F)cn3)s2)CC1 [Compound 4],< 0.1 nM
15,C[C@H](c1ccc(F)cc1)n1cncc1CN1CCN(S(=O)(=O)c2cnc(N3CCNCC3)s2)CC1 [Compound 1],1.4 nM
16,C[C@H](c1ccc(F)cc1)n1cncc1CN1CCN(S(=O)(=O)c2cnc(N3CC[C@@H]4NCCO[C@H]4C3)s2)CC1 [Compound 15],1.2 nM
17,C[C@H](c1ccc(F)cc1)n1cncc1CN1CCN(S(=O)(=O)c2cnc(N3CCN4C[C@H](O)CC[C@H]4C3)s2)CC1 [Compound 19],1.7 nM
18,C[C@H](c1ccc(F)cc1)n1cncc1CN1CCN(S(=O)(=O)c2cnc(N3CCN4C[C@H](O)C[C@@H]4C3)s2)CC1 [Compound 6],1.4 nM
19,C[C@H](c1ccc(F)cc1)n1cncc1CN1CCN(S(=O)(=O)c2cnc(N3CCN4C[C@H](O)CC4(C)C3)s2)CC1 (stereo partly shown) [Compound 24],1.9 nM
20,C[C@H](c1ccc(F)cc1)n1cncc1CN1CCN(S(=O)(=O)c2cnc(NCC(F)CN)s2)CC1 (stereo partly shown) [Compound 17],1.7 nM

# Biological target: T2, human CYP11B2 (Homo sapiens, UniProt P19099)
# T2 construct: expressed in transfected cells
# T2 sequence (P19099 25-503): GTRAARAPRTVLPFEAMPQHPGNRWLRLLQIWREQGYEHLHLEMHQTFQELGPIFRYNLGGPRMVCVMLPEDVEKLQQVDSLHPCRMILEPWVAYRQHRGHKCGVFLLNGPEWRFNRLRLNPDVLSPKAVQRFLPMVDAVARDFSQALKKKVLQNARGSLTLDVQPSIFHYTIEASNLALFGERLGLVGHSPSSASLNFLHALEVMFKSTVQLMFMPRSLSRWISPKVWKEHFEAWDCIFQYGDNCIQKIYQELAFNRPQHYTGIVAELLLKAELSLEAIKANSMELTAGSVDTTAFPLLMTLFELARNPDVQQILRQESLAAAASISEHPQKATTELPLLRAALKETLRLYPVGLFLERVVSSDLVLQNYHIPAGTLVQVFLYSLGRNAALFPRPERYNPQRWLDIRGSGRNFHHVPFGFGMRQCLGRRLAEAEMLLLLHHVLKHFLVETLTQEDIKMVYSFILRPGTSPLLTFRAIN
# Assay: IC50 vs CYP11B2 by aldosterone synthesis in V79 cells (HTRF)
# Format: cell-based
# Conditions: V79 cells expressing human CYP11B2, 750 nM DOC, test conc. 0.5-10000 nM, unit inferred
# Method: Determination of IC50 Vs CYP11B1/CYP11B2 by Measurement of Cortisol/Aldosterone Synthesis
# This assay was performed in a standard 384-well plate design using cultured V79 cells stably expressing human CYP11B1 or human CYP11B2. Test compounds at 10 concentrations (for example, 10000, 3333.3, 1111.1, 370.4, 123.5, 41.2, 13.7, 4.6, 1.5 and 0.5 nM) were added in 384-well plate after the cell-seeding procedure. The incubation substrate contains 1500 nM RSS for CYP11B1 assay/750 nM DOC for CYP11B2 assay. The Cortisol/Aldosterone production of cell culture supernatant was determined by Cortisol/Aldosterone HTRF kit after for about 15 hours incubation at RT (protect from light). IC50 values were calculated from the percent inhibition observed for each test compound at 10 concentrations.
# The assay plate was read using Envision (Perkin Elmer, Waltham, Mass.) at 665 nm and 590 nm (using Filter Barcode of 217#, 205#; Mirror Barcode of 446#).
# Data are analyzed using Assay Data Analyzer. All ratio data (665 nm/590 nm) are back calculated according to the standard curve, resulting in Cortisol/Aldosterone concentrations. IC50 values are reported as the Inflection Point (IP) of a four parameter fit of the titration data.
# The following equation was used to calculate the % inhibition: % Activity=100×{1−(Sample_back calculated Cortisol/Aldosterone concentration−LC_back calculated Cortisol/Aldosterone concentration)/(HC_back calculated Cortisol/Aldosterone concentration−LC_back calculated Cortisol/Aldosterone concentration)} Curve Fitting: Four Parameter Logistic: […]
row,Compound,IC50
1,C[C@H](c1ccc(F)cc1)n1cncc1CN1CCN(S(=O)(=O)c2cnc(N3CCC(S(C)(=O)=O)C3)s2)CC1 (stereo partly shown) [Compound 7],16300 nM
